Experimental data reported in ChEMBL document CHEMBL3885881, “DrugMatrix”.

Species: Rattus norvegicus
Experiment: DrugMatrix - Regimen: Daily Repeat
Type: toxicity, organism-based, Sprague-Dawley
Design: regimen Daily Repeat, gender Male, age 6-8 weeks
Conditions: in vivo, po, route oral GAVAGE, vehicle .5 % CMC; for ABSOLUTE BASOPHIL / ABSOLUTE EOSINOPHIL / ABSOLUTE LYMPHOCYTE / ABSOLUTE MONOCYTE / ABSOLUTE SEGMENTED NEUTROPHIL / BASOPHIL / EOSINOPHIL / ERYTHROCYTE COUNT / HEMATOCRIT / HEMOGLOBIN / LEUKOCYTE COUNT / LYMPHOCYTE / MEAN CORPUSCULAR HEMOGLOBIN / MEAN CORPUSCULAR HEMOGLOBIN CONCENTRATION / MEAN CORPUSCULAR VOLUME / MONOCYTE / NEUTROPHIL / NUCLEATED RED BLOOD CELLS / PLATELET COUNT: tissue Blood; for ALANINE AMINOTRANSFERASE / ALBUMIN / ALKALINE PHOSPHATASE / ASPARTATE AMINOTRANSFERASE / BLOOD UREA NITROGEN / CARBON DIOXIDE / CHLORIDE / CHOLESTEROL / CREATINE PHOSPHOKINASE / CREATININE / GLUCOSE / LACTATE DEHYDROGENASE / LIPASE / PHOSPHORUS / POTASSIUM / SODIUM / TOTAL BILIRUBIN / TOTAL PROTEIN / URIC ACID: tissue Plasma
[1] = 0 mg/kg, 72 h, dose level Control, time 3 day
[2] = 0 mg/kg, 120 h, dose level Control, time 5 day
[3] = 20 mg/kg, 72 h, dose level Low, time 3 day

NC(=O)N1c2ccccc2CC(=O)c2ccccc21 [OXCARBAZEPINE]
ABSOLUTE BASOPHIL [1]: 0 CELLS/uL | ABSOLUTE EOSINOPHIL [1]: 0 CELLS/uL | ABSOLUTE LYMPHOCYTE [1]: 12269.67 CELLS/uL | ABSOLUTE MONOCYTE [1]: 160.33 CELLS/uL | ABSOLUTE SEGMENTED NEUTROPHIL [1]: 970 CELLS/uL | BASOPHIL [1]: 0% | EOSINOPHIL [1]: 0% | ERYTHROCYTE COUNT [1]: 5.76 x10E6/uL | HEMATOCRIT [1]: 36.57% | HEMOGLOBIN [1]: 14.22 G/DL | LEUKOCYTE COUNT [1]: 13.4 x10E3/uL | LYMPHOCYTE [1]: 91.67% | MEAN CORPUSCULAR HEMOGLOBIN [1]: 24.67 pg | MEAN CORPUSCULAR HEMOGLOBIN CONCENTRATION [1]: 38.85 G/DL | MEAN CORPUSCULAR VOLUME [1]: 63.52 fL | MONOCYTE [1]: 1.17% | NEUTROPHIL [1]: 7.17% | NUCLEATED RED BLOOD CELLS [1]: 0.33 /100WBC | PLATELET COUNT [1]: 1250.83 x10E3/uL | ALANINE AMINOTRANSFERASE [1]: 49.17 u/L | ALBUMIN [1]: 4.33 G/DL | ALKALINE PHOSPHATASE [1]: 378.5 u/L | ASPARTATE AMINOTRANSFERASE [1]: 82.17 u/L | BLOOD UREA NITROGEN [1]: 15 mg/dL | CARBON DIOXIDE [1]: 34.33 mmol/L | CHLORIDE [1]: 99.17 MEQ/L | CHOLESTEROL [1]: 71.17 mg/dL | CREATINE PHOSPHOKINASE [1]: 258.67 u/L | CREATININE [1]: 0.18 mg/dL | GLUCOSE [1]: 142.67 mg/dL | LACTATE DEHYDROGENASE [1]: 154.33 u/L | LIPASE [1]: 9 u/L | PHOSPHORUS [1]: 11.67 mg/dL | POTASSIUM [1]: 7.13 MEQ/L | SODIUM [1]: 142.22 MEQ/L | TOTAL BILIRUBIN [1]: 0.18 mg/dL | TOTAL PROTEIN [1]: 5.77 G/DL | URIC ACID [1]: 1.55 mg/dL | ABSOLUTE BASOPHIL [2]: 0 CELLS/uL | ABSOLUTE EOSINOPHIL [2]: 23.33 CELLS/uL | ABSOLUTE LYMPHOCYTE [2]: 14943.67 CELLS/uL | ABSOLUTE MONOCYTE [2]: 32 CELLS/uL | ABSOLUTE SEGMENTED NEUTROPHIL [2]: 1084.33 CELLS/uL | BASOPHIL [2]: 0% | EOSINOPHIL [2]: 0.17% | ERYTHROCYTE COUNT [2]: 5.71 x10E6/uL | HEMATOCRIT [2]: 35.28% | HEMOGLOBIN [2]: 14.27 G/DL | LEUKOCYTE COUNT [2]: 16.08 x10E3/uL | LYMPHOCYTE [2]: 93% | MEAN CORPUSCULAR HEMOGLOBIN [2]: 25.02 pg | MEAN CORPUSCULAR HEMOGLOBIN CONCENTRATION [2]: 40.43 G/DL | MEAN CORPUSCULAR VOLUME [2]: 61.82 fL | MONOCYTE [2]: 0.17% | NEUTROPHIL [2]: 6.67% | NUCLEATED RED BLOOD CELLS [2]: 0.33 /100WBC | PLATELET COUNT [2]: 1274 x10E3/uL | ALANINE AMINOTRANSFERASE [2]: 54.17 u/L | ALBUMIN [2]: 4.22 G/DL | ALKALINE PHOSPHATASE [2]: 373.17 u/L | ASPARTATE AMINOTRANSFERASE [2]: 81.83 u/L | BLOOD UREA NITROGEN [2]: 16.67 mg/dL | CARBON DIOXIDE [2]: 30.33 mmol/L | CHLORIDE [2]: 99 MEQ/L | CHOLESTEROL [2]: 71 mg/dL | CREATINE PHOSPHOKINASE [2]: 273.5 u/L | CREATININE [2]: 0.22 mg/dL | GLUCOSE [2]: 141.83 mg/dL | LACTATE DEHYDROGENASE [2]: 153.67 u/L | LIPASE [2]: 10.33 u/L | PHOSPHORUS [2]: 11.38 mg/dL | POTASSIUM [2]: 7.08 MEQ/L | SODIUM [2]: 142.75 MEQ/L | TOTAL BILIRUBIN [2]: 0.18 mg/dL | TOTAL PROTEIN [2]: 6.1 G/DL | URIC ACID [2]: 1.67 mg/dL | ABSOLUTE BASOPHIL [3]: 0 CELLS/uL | ABSOLUTE EOSINOPHIL [3]: 39.67 CELLS/uL | ABSOLUTE LYMPHOCYTE [3]: 12910 CELLS/uL | ABSOLUTE MONOCYTE [3]: 169.33 CELLS/uL | ABSOLUTE SEGMENTED NEUTROPHIL [3]: 1314.33 CELLS/uL | BASOPHIL [3]: 0% | EOSINOPHIL [3]: 0.33% | ERYTHROCYTE COUNT [3]: 5.51 x10E6/uL | HEMATOCRIT [3]: 35.53% | HEMOGLOBIN [3]: 14 G/DL | LEUKOCYTE COUNT [3]: 14.43 x10E3/uL | LYMPHOCYTE [3]: 90% | MEAN CORPUSCULAR HEMOGLOBIN [3]: 25.43 pg | MEAN CORPUSCULAR HEMOGLOBIN CONCENTRATION [3]: 39.43 G/DL | MEAN CORPUSCULAR VOLUME [3]: 64.5 fL | MONOCYTE [3]: 1.33% | NEUTROPHIL [3]: 8.33% | NUCLEATED RED BLOOD CELLS [3]: 0.33 /100WBC | PLATELET COUNT [3]: 1357.67 x10E3/uL | ALANINE AMINOTRANSFERASE [3]: 55.67 u/L | ALBUMIN [3]: 4.33 G/DL | ALKALINE PHOSPHATASE [3]: 378.33 u/L | ASPARTATE AMINOTRANSFERASE [3]: 87.67 u/L | BLOOD UREA NITROGEN [3]: 12.67 mg/dL | CARBON DIOXIDE [3]: 27.33 mmol/L | CHLORIDE [3]: 103 MEQ/L | CHOLESTEROL [3]: 73.33 mg/dL | CREATINE PHOSPHOKINASE [3]: 333.33 u/L | CREATININE [3]: 0.24 mg/dL | GLUCOSE [3]: 150.67 mg/dL | LACTATE DEHYDROGENASE [3]: 316 u/L | LIPASE [3]: 10 u/L | PHOSPHORUS [3]: 13.2 mg/dL | POTASSIUM [3]: 7.12 MEQ/L | SODIUM [3]: 146.57 MEQ/L | TOTAL BILIRUBIN [3]: 0.2 mg/dL | TOTAL PROTEIN [3]: 5.93 G/DL | URIC ACID [3]: 2.37 mg/dL
